Test results: patent US20090203145A1, “METHODS FOR ANALYSIS OF VITAMINS” (priority 2008, published 2009)

Test system: specific bacteria
Experiment: Microbiological method for B6 (Official Method 961.15, Modified): signal response of similar molecules
Type: cell-based
Details: microbiological B6 assay; for Signal Response in Microbiological Method: Response, %: B6 (pyridoxine) given as 100; for response in microbiological method compared with B6: statement in words
From the text: The often low concentrations of vitamins in foods can make measuring the level of vitamins in various foods difficult. For example, the low concentration of B vitamins in infant formula makes it difficult to be measured by traditional measurement techniques such as HPLC. Currently, microbiological methods for measuring B vitamins are widely used at laboratories. This method is based on the growth of specific bacteria in the presence of a specific B vitamin and can only be measured one analyte per assay. The analysis process may take more than 30 hours. Poor reproducibility is another disadvantage. It is not unusual for a bacterial response to vary with different compounds and show low specificity. Monitoring different chemical forms. Current microbiological method have less specificity, such as those described in Official Method 961.15 (Modified), Official Methods of Analysis of AOAC International, 17th ed., AOAC International, Gaithersburg Md. (2000). In the case of B6, for example, other similar molecules may have a similar response. […] However, these compounds can be distinguished by LC/MS/MS without any problem in real samples such as milk.

SMILES	Signal Response in Microbiological Method: Response, % [%]	response in microbiological method compared with B6
Cc1ncc(CO)c(CO)c1O [B6, pyridoxine, pyridoxine]	100	
Cc1ncc(CO)c(C=O)c1O [Pyridoxal, pyridoxal]	112	response as strong as B6
Cc1ncc(CO)c(CN)c1O [Pyridoxamine, pyridoxamine]	84	response as strong as B6
Cc1ncc(CO)c(C(=O)O)c1O [Pyridoxic acid, 4-pyridoxic acid]	0	
